Measured values reported in PubChem BioAssay AID328 (DTP/NCI, 2004).
“And” between values parts separate entries of the source, which are not always exact repeats. Identical values can stand only once. Inconclusive results and toxic doses are left out. Rule for the calls: active = survival T/C of 150% or more; inactive = T/C below 125% in these data.

Tested on: BDF1 mice, P388 leukemia ip, median survival T/C
Test: NCI In Vivo Anticancer Drug Screen. Data for tumor model P388 Leukemia (intraperitoneal) in B6D2F1 (BDF1) mice
Settings: endpoint: median survival time, higher = longer survival
In short: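 Vehicle-dosed animals serve as the reference; survival of compound-dosed, tumour-implanted mice is divided by it.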

[1] = dose: 6.25 mg/kg/injection, schedule: Q01DX009 (ip), vehicle: saline with Tween-80
[2] = dose: 12.5 mg/kg/injection, schedule: Q01DX009 (ip), vehicle: saline with Tween-80
[3] = dose: 25.0 mg/kg/injection, schedule: Q01DX009 (ip), vehicle: saline with Tween-80
[4] = dose: 100.0 mg/kg/injection, schedule: Q01DX009 (ip), vehicle: saline with Tween-80
[5] = dose: 25.0 mg/kg/injection, schedule: Q04DX003 (ip), vehicle: saline with Tween-80
[6] = dose: 50.0 mg/kg/injection, schedule: Q04DX003 (ip), vehicle: saline with Tween-80
[7] = dose: 100.0 mg/kg/injection, schedule: Q04DX003 (ip), vehicle: saline with Tween-80
[8] = dose: 50.0 mg/kg/injection, schedule: Q04DX003 (ip), vehicle: Klucel (hydroxypropylcellulose) (HPC)
[9] = dose: 100.0 mg/kg/injection, schedule: Q04DX003 (ip), vehicle: Klucel (hydroxypropylcellulose) (HPC)
[10] = dose: 200.0 mg/kg/injection, schedule: Q04DX003 (ip), vehicle: Klucel (hydroxypropylcellulose) (HPC)
[11] = dose: 25.0 mg/kg/injection, schedule: Q01DX009 (ip), vehicle: saline
[12] = dose: 100.0 mg/kg/injection, schedule: Q01DX009 (ip), vehicle: saline
[13] = dose: 200.0 mg/kg/injection, schedule: Q04DX003 (ip), vehicle: saline with Tween-80
[14] = dose: 400.0 mg/kg/injection, schedule: Q04DX003 (ip), vehicle: saline with Tween-80
[15] = dose: 100.0 mg/kg/injection, schedule: Q01DX001 (ip), vehicle: Klucel (hydroxypropylcellulose) (HPC)
[16] = dose: 50.0 mg/kg/injection, schedule: Q01DX009 (ip), vehicle: saline with Tween-80

Measured: T/C

COC(=O)C1C(O)C(C)C(OC(C)=O)C(C)/C=C\C=C(C)C(=O)Nc2c(C)c(OC(C)=O)c3c(c2O)C(=O)C(C)=C2OCOC(=C23)C(C)=CC(C)(O)C(O)C(C)C1O (stereo not drawn)
inactive: dose: 100.0 mg/kg/injection, schedule: Q01DX009 (ip), vehicle: Klucel (hydroxypropylcellulose) (HPC) 101 % of control | dose: 200.0 mg/kg/injection, schedule: Q01DX009 (ip), vehicle: Klucel (hydroxypropylcellulose) (HPC) 106 % of control | dose: 400.0 mg/kg/injection, schedule: Q01DX009 (ip), vehicle: Klucel (hydroxypropylcellulose) (HPC) 110 % of control

C[n+]1ccc2ccccc2c1CCCc1nccc2ccccc12
inactive: [1] 100 % of control | [2] 120 % of control | [3] 116 % of control

COc1ccc2cc3[n+](cc2c1OC)CCc1cc2c(cc1-3)OCO2
inactive: dose: 1.0 mg/kg/injection, schedule: Q01DX010 (ip), vehicle: steriod suspending solution 104 % of control | dose: 2.0 mg/kg/injection, schedule: Q01DX010 (ip), vehicle: steriod suspending solution 122 % of control | dose: 6.0 mg/kg/injection, schedule: Q01DX010 (ip), vehicle: saline 104 % of control

O=[N+]([O-])c1ccc2c(N=Nc3c(O)ccc4ccccc34)c(O)cc(S(=O)(=O)O)c2c1
inactive: dose: 25.0 mg/kg/injection, schedule: Q01DX001 (ip), vehicle: saline with Tween-80 104 % of control | dose: 50.0 mg/kg/injection, schedule: Q01DX001 (ip), vehicle: saline with Tween-80 100 % of control | dose: 100.0 mg/kg/injection, schedule: Q01DX001 (ip), vehicle: saline with Tween-80 100 % of control | [4] 104 % of control | dose: 400.0 mg/kg/injection, schedule: Q01DX009 (ip), vehicle: saline with Tween-80 100 % of control

CCOC(=O)CC/C(=C/c1ccccc1)[N+](=O)[O-]
inactive: [5] 110 % of control | [6] 106 % of control | [7] 119 % of control

CN(C)c1ccc(C=O)cc1[N+](=O)[O-]
inactive: [8] 113 % of control | [9] 113 % of control | [10] 104 % of control

COc1cc2ccc3cc[n+](C)cc3c2cc1OC
inactive: [11] 95 % of control | dose: 25.0 mg/kg/injection, schedule: Q04DX003 (ip), vehicle: saline 104 % of control | dose: 50.0 mg/kg/injection, schedule: Q01DX009 (ip), vehicle: saline 96 % of control and 100 % of control | dose: 50.0 mg/kg/injection, schedule: Q04DX003 (ip), vehicle: saline 95 % of control | [12] 86 % of control | dose: 100.0 mg/kg/injection, schedule: Q04DX003 (ip), vehicle: saline 95 % of control and 104 % of control | dose: 200.0 mg/kg/injection, schedule: Q04DX003 (ip), vehicle: saline 90 % of control

CC(C#N)(Nc1ccccc1)c1ccccc1 (stereo not drawn)
inactive: [7] 95 % of control | [13] 100 % of control | [14] 100 % of control

COc1ccc(N2C(=O)CC(Sc3ccccc3N)C2=O)cc1 (stereo not drawn)
inactive: dose: 50.0 mg/kg/injection, schedule: Q01DX001 (ip), vehicle: Klucel (hydroxypropylcellulose) (HPC) 100 % of control | [15] 104 % of control

CC1N/C(=C/c2ccccc2)C(=O)O1 (stereo not drawn)
inactive: [16] 118 % of control | [4] 121 % of control

NNc1ccc([N+](=O)[O-])c2[nH][nH]c(=O)c12
inactive: [16] 105 % of control | [4] 107 % of control | dose: 200.0 mg/kg/injection, schedule: Q01DX009 (ip), vehicle: saline with Tween-80 107 % of control

C[Si]1(C)CCCSC1
inactive: [2] 89 % of control | [3] 91 % of control | [16] 93 % of control | [4] 103 % of control

O=C1CN(CN2CCCCC2)C(=O)CN1CN1CCCCC1
inactive: dose: 12.5 mg/kg/injection, schedule: Q01DX009 (ip), vehicle: Klucel (hydroxypropylcellulose) (HPC) 115 % of control | dose: 25.0 mg/kg/injection, schedule: Q01DX009 (ip), vehicle: Klucel (hydroxypropylcellulose) (HPC) 117 % of control | dose: 50.0 mg/kg/injection, schedule: Q01DX009 (ip), vehicle: Klucel (hydroxypropylcellulose) (HPC) 92 % of control and 100 % of control | [9] 120 % of control | [10] 108 % of control

COC(=O)CSC/C(=N\Nc1ccccc1)c1ccccc1
inactive: [15] 95 % of control | dose: 200.0 mg/kg/injection, schedule: Q01DX001 (ip), vehicle: Klucel (hydroxypropylcellulose) (HPC) 100 % of control | dose: 400.0 mg/kg/injection, schedule: Q01DX001 (ip), vehicle: Klucel (hydroxypropylcellulose) (HPC) 109 % of control

CN1CCC(OC(N)=O)CC1
inactive: [12] 109 % of control | dose: 100.0 mg/kg/injection, schedule: Q04DX003 (ip), vehicle: alcohol 100 % of control | dose: 100.0 mg/kg/injection, schedule: Q04DX003 (ip), vehicle: saline sonified 100 % of control | dose: 132.0 mg/kg/injection, schedule: Q01DX008 (ip), vehicle: saline 95 % of control | dose: 132.0 mg/kg/injection, schedule: Q01DX009 (ip), vehicle: saline 113 % of control | dose: 200.0 mg/kg/injection, schedule: Q01DX008 (ip), vehicle: saline 104 % of control | dose: 200.0 mg/kg/injection, schedule: Q01DX009 (ip), vehicle: saline 109 % of control | dose: 200.0 mg/kg/injection, schedule: Q04DX003 (ip), vehicle: alcohol 100 % of control | dose: 200.0 mg/kg/injection, schedule: Q04DX003 (ip), vehicle: saline sonified 104 % of control | dose: 300.0 mg/kg/injection, schedule: Q01DX008 (ip), vehicle: saline 104 % of control | dose: 300.0 mg/kg/injection, schedule: Q01DX009 (ip), vehicle: saline 113 % of control | dose: 400.0 mg/kg/injection, schedule: Q01DX009 (ip), vehicle: saline 95 % of control | dose: 400.0 mg/kg/injection, schedule: Q04DX003 (ip), vehicle: alcohol 118 % of control | dose: 400.0 mg/kg/injection, schedule: Q04DX003 (ip), vehicle: saline sonified 100 % of control

O=C(Nc1cccc(Cl)c1)C1CCCC1=Nc1cccc(Cl)c1 (stereo not drawn)
inactive: [16] 100 % of control | [4] 106 % of control

CN(C)C1CCCCC1
inactive: dose: 25.0 mg/kg/injection, schedule: Q04DX003 (ip), vehicle: Klucel (hydroxypropylcellulose) (HPC) 91 % of control | [8] 95 % of control

c1ccc(-n2nc3c(c2-c2ccc(OCCN4CCCC4)cc2)CCCc2ccccc2-3)cc1
inactive: [5] 120 % of control | [6] 120 % of control | [7] 100 % of control

COC(=O)/C(=C1/OC(=O)C(c2ccccc2)=C1O)c1ccccc1
inactive: [1] 100 % of control | dose: 11.0 mg/kg/injection, schedule: Q01DX009 (ip), vehicle: saline with Tween-80 115 % of control | [2] 90 % of control | dose: 16.5 mg/kg/injection, schedule: Q01DX009 (ip), vehicle: saline with Tween-80 105 % of control | [3] 109 % of control and 112 % of control | dose: 37.5 mg/kg/injection, schedule: Q01DX009 (ip), vehicle: saline with Tween-80 95 % of control | [16] 100 % of control

O=[N+]([O-])c1ccc(NC2CCCCC2)c2c1no[n+]2[O-]
inactive: dose: 6.25 mg/kg/injection, schedule: Q01DX009 (ip), vehicle: saline 95 % of control | dose: 12.5 mg/kg/injection, schedule: Q01DX009 (ip), vehicle: saline 97 % of control | [11] 95 % of control

CC(=O)Oc1ccc(C2C3=C(COC3=O)CC3=C2C(=O)OC3)cc1
inactive: dose: 100.0 mg/kg/injection, schedule: Q01DX007 (ip), vehicle: saline with Tween-80 95 % of control | [7] 100 % of control | dose: 200.0 mg/kg/injection, schedule: Q01DX007 (ip), vehicle: saline with Tween-80 90 % of control | [13] 110 % of control | dose: 400.0 mg/kg/injection, schedule: Q01DX007 (ip), vehicle: saline with Tween-80 100 % of control | [14] 100 % of control

COC(=O)C(F)C(Br)C(=O)OC (stereo not drawn)
inactive: [3] 113 % of control | [16] 115 % of control
